Source: patent US20220282237A1, “NOVEL FUCOSE ISOMERASE AND FUCOSE PRODUCTION METHOD USING SAME” (Korea University Research and Business Foundation, priority 2019, published 2022)
Like-named read-outs stand apart in the source and are kept apart here.

How the values were obtained:
RdFucI [1] = assay type: biochemical, Raoultella sp. KDH 14
RdFucI [2] = assay: Substrate specificity of RdFucI; assay type: biochemical, Raoultella sp. KDH 14; conditions: aldose and ketose substrates tested
From the text: In general, sugar isomerases show reactivity for various sugars. As a result of testing with various aldoses (L-fucose, D-arabinose, D-altrose, D-galactose, D-mannose and D-glucose) and ketose substrates (L-fuculose, D-ribulose, D-psicose, D-tagatose and D-fructose), the highest activity was shown against L-fuculose (115.3 U/mg) and D-ribulose (127.3 U/mg), showing much higher activities compared to activities for the other tested aldose and ketose substrates.

[3] = pH effect on RdFucI activity for fuculose; assay type: biochemical, Raoultella sp. KDH 14
[4] = target: the molecule itself; assay: crystal structure, self-association of subunits
[5] = Reversible reaction between L-fucose and L-fuculose by RdFucI; assay type: biochemical, Raoultella sp. KDH 14; conditions: 10 mM substrate, 20 mM sodium phosphate pH 7, 1.5 μg RdFucI, 30° C., 1 mM MnCl2
Procedure: In order to identify what kind of reaction RdFucI favored in a reaction between fucose and fuculose, a reversible reaction of the recombinant enzyme was investigated over time. For this purpose, 10 mM L-fucose (FIG. 4a) or L-fuculose (FIG. 4b) included in 20 mM sodium phosphate (pH7) was used as a substrate, and was each reacted with 1.5 μg of RdFucI at 30° C. in the presence of 1 mM MnCl2, and L-fucose was experimentally quantified. In contrast, L-fuculose was expressed as a calculated value.

[6] = Temperature effect on RdFucI activity for fuculose; assay type: biochemical, Raoultella sp. KDH 14
From the text: (80% or more of the maximum activity) (FIG. 5a).

[7] = effect of metal ion on RdFucI activity, fuculose as substrate, Control = 100

[Ca+2].[Cl-].[Cl-] [CaCl2]
effect of metal ion on enzyme activity (in words) (RdFucI [1]; RdFucI): inhibit the enzyme activity | Relative activity (%) (RdFucI [1]; [7]): 64 ± 8%

[Cl][Cd][Cl] [CdCl2]
effect of metal ion on enzyme activity (in words) (RdFucI [1]; RdFucI): increase the enzyme activity | Relative activity (%) (RdFucI [1]; [7]): 183 ± 9%

[Cl-].[Cl-].[Co+2] [CoCl2]
Relative activity (%) (RdFucI [1]): 353 ± 83% | effect of metal ion on enzyme activity (in words) (RdFucI [1]): increase the enzyme activity

[Cl-].[Cs+] [CsCl2]
Relative activity (%) (RdFucI [1]; [7]): 101 ± 16%

[Cl][Cu][Cl] [CuCl2]
effect of metal ion on enzyme activity (in words) (RdFucI [1]; RdFucI): inhibit the enzyme activity | Relative activity (%) (RdFucI [1]; [7]): 58 ± 7%

O=C(CO)[C@H](O)[C@H](O)CO [D-ribulose]
activity of RdFucI against substrate (RdFucI [2]): 127.3 U/mg

O=C(O)CN(CCN(CC(=O)O)CC(=O)O)CC(=O)O [EDTA]
Relative activity (%) (RdFucI [1]): 77 ± 12%

[Cl][Fe]([Cl])[Cl] [FeCl3]
effect of metal ion on enzyme activity (in words) (RdFucI [1]; RdFucI): inhibit the enzyme activity | Relative activity (%) (RdFucI [1]; [7]): 74 ± 3%

C[C@H](O)[C@@H](O)[C@@H](O)C(=O)CO [L-fuculose]
activity of RdFucI against substrate (RdFucI [2]): 115.3 U/mg

O=S(=O)([O-])[O-].[Li+].[Li+] [LiSO4]
Relative activity (%) (RdFucI [1]; [7]): 101 ± 15%

[Cl-].[Cl-].[Mg+2] [MgCl2]
effect of metal ion on enzyme activity (in words) (RdFucI [1]; RdFucI): increase the enzyme activity | Relative activity (%) (RdFucI [1]; [7]): 533 ± 31%

[Cl][Mn][Cl] [MnCl2]
effect of metal ion on enzyme activity (in words) (RdFucI [1]; RdFucI): increase the enzyme activity | increase of enzyme activity in the presence of the metal ion (RdFucI [1]; RdFucI, fuculose as substrate): about 7 fold | Relative activity (%) (RdFucI [1]; [7]): 738 ± 70%

[Cl][Ni][Cl] [NiCl2]
Relative activity (%) (RdFucI [1]; [7]): 91 ± 13%

[Cl-].[Cl-].[Zn+2] [ZnCl2]
effect of metal ion on enzyme activity (in words) (RdFucI [1]; RdFucI): increase the enzyme activity | Relative activity (%) (RdFucI [1]; [7]): 159 ± 4%

Tris-HCl [Tris-HCl buffer]
RdFucI activity in the buffer versus other buffer types at the same pH (in words) ([3]; pH 7, 8 and 9, 50 mM, 40° C.): much lower

B1: L-fucose isomerase derived from Raoultella sp. KDH 14 strain (enzyme)
chain: MKRISLPKIGIRPVIDGRRMGVRESLEAQTMNMAKATAALISEKLRHACGAQIECVIADTCIAGMAESAACEEKFSRQNVGVTITVTPCWCYGSETIDMDPLRPKAIWGFNGTERPGAVYLAAALAAHSQKGIPAFSIYGHDVQDADDTTIPADVEEKLLRFARAGLAVASMKGKSYLSVGGVSMGIAGSIVDHNFFESWLGMKVQAVDMTELRRRIDQKIYDEVELEMALAWADKNFRYGEDQNAQHYKRDEEQSRAVLKESLLMAMCIRDMMQGNEKLAEKGLLEESLGYNAIAAGFQGQRHWTDQYPNGDTAEALLNSSFDWNGVREPFVVATENDSLNGVAMLMGHQLTGTAQVFADVRTYWSPDAVERVTGQPLTGLAEHGIIHLINSGSAALDGSCQQRDEEGKPTMKPHWEISQKEADACLAATEWCPAIHEYFRGGGYSSRFLTEGGVPFTMTRVNLIKGLGPVLQIAEGWSVELPKAMHDQLDARTNSTWPTTWFAPRLTGKGPFADVYSVMANWGANHGVLTIGHVGADFITLAAMLRIPVCMHNVEEGKIYRPSSWSAHGMDTEGQDYRACQNYGPLYKR
notes: also called RdFucI; Rd FucI
binding result [4]: binds

B2: RdFucI: L-fucose isomerase of Raoultella sp. KDH 14, amino acid sequence SEQ ID NO: 1, 591 amino acids (protein)
chain: MKRISLPKIGIRPVIDGRRMGVRESLEAQTMNMAKATAALISEKLRHACGAQIECVIADTCIAGMAESAACEEKFSRQNVGVTITVTPCWCYGSETIDMDPLRPKAIWGFNGTERPGAVYLAAALAAHSQKGIPAFSIYGHDVQDADDTTIPADVEEKLLRFARAGLAVASMKGKSYLSVGGVSMGIAGSIVDHNFFESWLGMKVQAVDMTELRRRIDQKIYDEVELEMALAWADKNFRYGEDQNAQHYKRDEEQSRAVLKESLLMAMCIRDMMQGNEKLAEKGLLEESLGYNAIAAGFQGQRHWTDQYPNGDTAEALLNSSFDWNGVREPFVVATENDSLNGVAMLMGHQLTGTAQVFADVRTYWSPDAVERVTGQPLTGLAEHGIIHLINSGSAALDGSCQQRDEEGKPTMKPHWEISQKEADACLAATEWCPAIHEYFRGGGYSSRFLTEGGVPFTMTRVNLIKGLGPVLQIAEGWSVELPKAMHDQLDARTNSTWPTTWFAPRLTGKGPFADVYSVMANWGANHGVLTIGHVGADFITLAAMLRIPVCMHNVEEGKIYRPSSWSAHGMDTEGQDYRACQNYGPLYKR
modifications: Raoultella sp. KDH 14
relative maximum activity at pH 6 to 11 ([3]; sodium acetate, sodium phosphate and glycine-NaOH buffers): ≥ 70% | reaction rate of reverse reaction (L-fuculose to L-fucose) versus forward reaction [5]: about 5 fold | relative activity, of the maximum activity, at 30, 40 and 50° C. ([6]; 10 mM substrate, 1.5 μg enzyme, pH 7): ≥ 80% | temperature of highest activity ([6]; 10 mM substrate, 1.5 μg enzyme, pH 7, 10 to 80° C.): 40 °C | enzyme activity out of the 30 to 50° C. range ([6]; L-fuculose as substrate): less than 50%
